Laboratory results reported in US11666575B2, “Pyrazolo[1,5]pyrimidine-based compounds and methods of their use to treat viral infections” (Lexicon Pharmaceuticals, Inc., priority 2020, dated 2023).
Several values for one entry are separate records, joined by “and”; a condition that tells them apart may be missing. Equal values may be shown once. Where a name gives a salt, the structure may show the parent alone. Read-outs that look alike come from different tables or passages of the source.

Experiments:
HCoV-OC43 = assay: OC43 CPE assay in Huh-7 cells (neutral red uptake); assay type: cell-based, Human coronavirus OC43; conditions: for Raw OD - Absorbance 490 nm: infected Huh-7, neutral red uptake, individual replicate; for EC50: Betacoronavirus 1, OC43, 144 h, 6 days, neutral red uptake
[1] = system: HCoV-OC43 (Betacoronavirus 1); assay: microbe, parasite or virus in culture; assay type: cell-based; conditions: for EC50: read-out: Efficacy
H292 cells (NCI-H292) = assay: Cytotoxicity in uninfected H292 cells (MTT)
[2] = system: alpha coronavirus 229E (CoV-229E); assay: Inhibition of CoV-229E-induced CPE in MRC-5 cells (XTT); conditions: CPE reduction, CoV-229E in MRC-5 cells, 6 days
in vitro [3] = conditions: human
Huh-7 cells = assay: Cytotoxicity / viability of uninfected Huh-7 cells (XTT); conditions: for Viability of Huh-7 Cells (A490): 6 days, individual raw data; for Viability (A490): cytotoxic control, raw data, Huh-7
[4] = as above; conditions: human, uninfected Huh-7 cells
in vitro [5] = conditions: human; remark: listed apart in the source
[6] = Betacoronavirus 1, OC43, NCI-H292, 144 h
[7] = CC50, uninfected H292 cells, MTT, 6 days
[8] = Betacoronavirus 1, OC43, Huh-7, 0.01 μM, average ± SD of duplicates, read-out: Inhibition of OC43 Virus-Induced CPE in Huh-7 Cells
[9] = Betacoronavirus 1, OC43, Huh-7, 0.04 μM, average ± SD of duplicates, read-out: Inhibition of OC43 Virus-Induced CPE in Huh-7 Cells
[10] = Betacoronavirus 1, OC43, Huh-7, 0.12 μM, average ± SD of duplicates, read-out: Inhibition of OC43 Virus-Induced CPE in Huh-7 Cells
[11] = Betacoronavirus 1, OC43, Huh-7, 0.4 μM, average ± SD of duplicates, read-out: Inhibition of OC43 Virus-Induced CPE in Huh-7 Cells
[12] = Betacoronavirus 1, OC43, Huh-7, 1.1 μM, average ± SD of duplicates, read-out: Inhibition of OC43 Virus-Induced CPE in Huh-7 Cells
[13] = Betacoronavirus 1, OC43, Huh-7, 10 μM, average ± SD of duplicates, read-out: Inhibition of OC43 Virus-Induced CPE in Huh-7 Cells
[14] = Betacoronavirus 1, OC43, Huh-7, 30 μM, average ± SD of duplicates, read-out: Inhibition of OC43 Virus-Induced CPE in Huh-7 Cells
[15] = Betacoronavirus 1, NCI-H292, 144 h, EC50, HCoV-OC43-infected H292 cells, MTT, 6 days

CCN(CC)CCCC(C)Nc1ccnc2cc(Cl)ccc12 (stereo not drawn) [Chloroquine]
prevention of virus-induced CPE (HCoV-OC43; 6-day assay, Huh-7 cells): potently prevented the virus-induced CPE | inhibition at 5 µM (HCoV-OC43; Betacoronavirus 1, OC43, Huh-7, read-out: Inhibition of OC43 Virus-Induced CPE in Huh-7 Cells, 5 μM, control inhibitor, relative to uninfected cells (mock)): ~88% | EC50 [1, 6]: 0.4 µM | antiviral effect against β-coronavirus OC43 in H292 cells ([1]; 6 days): antiviral effect | Cytotoxicity (H292 cells (NCI-H292); [7]): 46.04 µM | EC50 [2]: 0.49 µM

COc1ncccc1-c1cnn2ccc(N3CCN(C(=O)OC4(C)COC4)CC3)nc12 [Compound 1, 3-methyloxetan-3-yl-4-(3-(2-methoxypyridin-3-yl)pyrazolo[1,5-a]pyrimidin-5-yl)piperazine-1-carboxylate]
Raw OD - Absorbance 490 nm (HCoV-OC43; 0.01 μM, listed as Compd. 1): 0.102 and 0.108 | Raw OD - Absorbance 490 nm (HCoV-OC43; 0.04 μM, listed as Compd. 1): 0.100 and 0.097 | Raw OD - Absorbance 490 nm (HCoV-OC43; 0.12 μM, listed as Compd. 1): 0.092 and 0.094 | Raw OD - Absorbance 490 nm (HCoV-OC43; 0.4 μM, listed as Compd. 1): 0.087 and 0.096 | Raw OD - Absorbance 490 nm (HCoV-OC43; 1.1 μM, listed as Compd. 1): 0.102 and 0.104 | Raw OD - Absorbance 490 nm (HCoV-OC43; 3.3 μM, listed as Compd. 1): 0.105 and 0.103 | Raw OD - Absorbance 490 nm (HCoV-OC43; 10 μM, listed as Compd. 1): 0.115 and 0.117 | antiviral effect at 30 μM (HCoV-OC43; 30 μM, Huh-7 cells, likely due to compound-induced toxicity): disappeared | Raw OD - Absorbance 490 nm (HCoV-OC43; 30 μM, listed as Compd. 1): 0.076 and 0.072 | EC50 (HCoV-OC43; Huh-7 cells): > 30 µM | inhibition at 0.01 µM (HCoV-OC43; [8]): -0.2 ± 0.6% | inhibition at 0.04 µM (HCoV-OC43; [9]): -0.8 ± 0.4% | inhibition at 0.12 µM (HCoV-OC43; [10]): -1.7 ± 0.2% | inhibition at 0.4 µM (HCoV-OC43; [11]): -1.9 ± 0.8% | inhibition at 1.1 µM (HCoV-OC43; [12]): -0.2 ± 0.2% | inhibition at 3.3 µM (HCoV-OC43; Betacoronavirus 1, OC43, Huh-7, 3.3 μM, average ± SD of duplicates, read-out: Inhibition of OC43 Virus-Induced CPE in Huh-7 Cells): 0% | inhibition at 10 µM (HCoV-OC43; [13]): 1.8 ± 0.3% | inhibition at 30 µM (HCoV-OC43; [14]): -4.5 ± 0.5% | EC50 [1, 15]: 9.31 µM | antiviral effect against β-coronavirus OC43 in H292 cells ([1]; 6 days): significant antiviral effect | viability of infected H292 cells ([1]; HCoV-OC43 infected, FIG. 6): increased with increased concentrations | viability at 6 days, 0.01 µM (in vitro [3]): 96.9 ± 0.8% | viability at 6 days, 0.04 µM (in vitro [3]): 100.4 ± 0.7% | viability at 6 days, 0.12 µM (in vitro [3]): 91.4 ± 1.8% | viability at 6 days, 0.37 µM (in vitro [3]): 88.8 ± 2.2% | viability at 6 days, 1.1 µM (in vitro [3]): 104 ± 2.9% | viability at 6 days, 3.3 µM (in vitro [3]): 113 ± 4.4% | viability at 6 days, 10 µM (in vitro [3]): 117 ± 4.5% | viability at 6 days, 30 µM (in vitro [3]): 111 ± 5.3% | viability at 6 days, 90 µM (in vitro [3]): 57.1 ± 4.9% | Cytotoxicity (H292 cells (NCI-H292); [7]): >300 µM | viability of uninfected H292 cells (H292 cells (NCI-H292); with increased concentrations, FIG. 6): did not change significantly | EC50 [2]: > 10 µM | Viability of Huh-7 Cells (A490) (Huh-7 cells; 0.01 μM, XTT, listed as Compd. 1): 0.724 and 0.716 | Viability of Huh-7 Cells (A490) (Huh-7 cells; 0.04 μM, XTT, listed as Compd. 1): 0.748 and 0.941 | Viability of Huh-7 Cells (A490) (Huh-7 cells; 0.12 μM, XTT, listed as Compd. 1): 0.673 and 0.691 | Viability of Huh-7 Cells (A490) (Huh-7 cells; 0.37 μM, XTT, listed as Compd. 1): 0.675 and 0.654 | Viability of Huh-7 Cells (A490) (Huh-7 cells; 1.1 μM, XTT, listed as Compd. 1): 0.758 and 0.786 | Viability of Huh-7 Cells (A490) (Huh-7 cells; 3.3 μM, XTT, listed as Compd. 1): 0.807 and 0.850 | Viability of Huh-7 Cells (A490) (Huh-7 cells; 10 μM, XTT, listed as Compd. 1): 0.878 and 0.834 | Viability of Huh-7 Cells (A490) (Huh-7 cells; 30 μM, XTT, listed as Compd. 1): 0.844 and 0.792 | Viability of Huh-7 Cells (A490) (Huh-7 cells; 90 μM, XTT, listed as Compd. 1): 0.421 and 0.469

CC[C@H]1CN2CCc3cc(OC)c(OC)cc3[C@@H]2C[C@@H]1C[C@H]1NCCc2cc(OC)c(OC)cc21 [Emetine]
cytotoxicity at 6 days, 5 μM [4]: > 90% | viability at 6 days, 1 µM [4]: 18.3 ± 0.3% | viability at 6 days, 5 µM [4]: 8.2 ± 0.7% | Viability (A490) (Huh-7 cells; 1 μm): 0.176 and 0.179 | Viability (A490) (Huh-7 cells; 5 μm): 0.104 and 0.111 | inhibition of cell viability (Huh-7 cells; tested at 5 μM, XTT): more than 90%

CCC(CC)COC(=O)[C@H](C)N[P@](=O)(OC[C@H]1O[C@@](C#N)(c2ccc3c(N)ncnn23)[C@H](O)[C@@H]1O)Oc1ccccc1 [Remdesivir]
EC50 [1, 6]: 37.5 µM | CC50 at 6 days (in vitro [5]): > 2 µM | Cytotoxicity (H292 cells (NCI-H292); [7]): >20 µM | EC50 [2]: 0.13 µM

CCN(CC)CCNC(=O)c1c(C)[nH]c(/C=C2\C(=O)Nc3ccc(F)cc32)c1C [Sunitinib maleate, sunitinib malate]
Raw OD - Absorbance 490 nm (HCoV-OC43; 0.01 μM): 0.120 | Raw OD - Absorbance 490 nm (HCoV-OC43; 0.04 μM): 0.094 | Raw OD - Absorbance 490 nm (HCoV-OC43; 0.4 μM): 0.086 and 0.090 | Raw OD - Absorbance 490 nm (HCoV-OC43; 1.1 μM): 0.094 | Raw OD - Absorbance 490 nm (HCoV-OC43; 3.3 μM): 0.312 and 0.136 | Raw OD - Absorbance 490 nm (HCoV-OC43; 10 μM): 0.214 and 0.280 | Raw OD - Absorbance 490 nm (HCoV-OC43; 30 μM): 0.051 and 0.053 | EC50 (HCoV-OC43; Huh-7 cells): > 30 µM | inhibition at 3.3 µM (HCoV-OC43; Betacoronavirus 1, OC43, Huh-7, read-out: Inhibition of OC43 Virus-Induced CPE in Huh-7 Cells): 17.9 ± 18.5% | inhibition at 0.01 µM (HCoV-OC43; [8]): 1.1 ± 1.9% | inhibition at 0.04 µM (HCoV-OC43; [9]): -1.2 ± 0.4% | inhibition at 0.12 µM (HCoV-OC43; [10]): -0.1 ± 0.4% | inhibition at 0.4 µM (HCoV-OC43; [11]): -2.4 ± 0.4% | inhibition at 1.1 µM (HCoV-OC43; [12]): -1 ± 0.8% | inhibition at 10 µM (HCoV-OC43; [13]): 21.4 ± 7% | inhibition at 30 µM (HCoV-OC43; [14]): -7.8 ± 0.2% | CC50 at 6 days (in vitro [3]): 13 µM | viability at 6 days, 0.01 µM (in vitro [3]): 92 ± 7.2% | viability at 6 days, 0.04 µM (in vitro [3]): 100 ± 1.3% | viability at 6 days, 0.12 µM (in vitro [3]): 99.1 ± 3.4% | viability at 6 days, 0.37 µM (in vitro [3]): 101 ± 3.4% | viability at 6 days, 1.1 µM (in vitro [3]): 89.7 ± 1.1% | viability at 6 days, 3.3 µM (in vitro [3]): 82.6 ± 4.2% | viability at 6 days, 10 µM (in vitro [3]): 72 ± 1.1% | viability at 6 days, 30 µM (in vitro [3]): 0.8 ± 0.3% | viability at 6 days, 90 µM (in vitro [3]): 0.4 ± 0.1% | Viability of Huh-7 Cells (A490) (Huh-7 cells; 0.01 μM, XTT): 0.721 and 0.651 | Viability of Huh-7 Cells (A490) (Huh-7 cells; 0.04 μM, XTT): 0.738 and 0.751 | Viability of Huh-7 Cells (A490) (Huh-7 cells; 0.12 μM, XTT): 0.719 and 0.752 | Viability of Huh-7 Cells (A490) (Huh-7 cells; 0.37 μM, XTT): 0.732 and 0.765 | Viability of Huh-7 Cells (A490) (Huh-7 cells; 1.1 μM, XTT): 0.676 and 0.665 | Viability of Huh-7 Cells (A490) (Huh-7 cells; 3.3 μM, XTT): 0.642 and 0.601 | Viability of Huh-7 Cells (A490) (Huh-7 cells; 10 μM, XTT): 0.543 and 0.554 | Viability of Huh-7 Cells (A490) (Huh-7 cells; 30 μM, XTT): 0.058 and 0.055 | Viability of Huh-7 Cells (A490) (Huh-7 cells; 90 μM, XTT): 0.053 and 0.054

CCN(CC)CCNC(=O)c1c(C)[nH]c(/C=C2\C(=O)Nc3ccc(F)cc32)c1C [Sunitinib]
EC50 [1, 15]: 0.406 µM | CC50 at 6 days (in vitro [5]; uninfected MRC-5 cells): 1.32 µM | Cytotoxicity (H292 cells (NCI-H292)): 10 to 50 µM
